These results are taken from patent US12655162B2, “Highly efficient myeloperoxidase activatable imaging agents” (priority 2019, dated 2026).

The conditions of series [1]: transmetallation with Zn^2+, cited from earlier work.
The test system of series [2] is MPO. Briefly: MR imaging of complete Freund's adjuvant (CFA) subcutaneous inflammation. The format is in vivo, mouse. The following applies: wild-type mice.
Experimental: The efficacy of mcMPO-Gd was validated in a well-established mouse model of subcutaneous inflammation induced by complete Freund's adjuvant (CFA). Six to ten weeks old female C57BL/6J mice (Jackson Laboratories, Bar Harbor, ME) and MPO-deficient mice were used for this experiment. The mice were injected subcutaneously with a 1:1 (v:v) emulsion of CFA:PBS (40 μL of total volume) on one forearm under isoflurane anesthesia. PBS (40 μL) was injected on the other side as control. After 24 h, gadolinium agents (mcMPO-Gd in PBS containing 10% DMSO and 20% N,N-dimethylacetamide, or MPO-Gd in PBS containing 5% DMSO, or Dotarem in PBS) were administered through tail vein injection and the mice imaged at 0 min, 15 min, 30 min, 45 min, and 60 min using serial T1-weighted imaging (TR:900 ms, TE: 13.59 ms, 0.156×0.156×0.5 mm Voxels) with chemical fat suppression and respiratory gating on a 4.7 T small animal MR scanner (Bruker, Cambridge, MA) with a 3-cm quadrature volume coil (Rapid MR International, Germany). Regions of interest (ROI) were drawn manually by a person blinded to the identity of the mice or imaging agent used, and the contrast-to-noise ratios (CNRs) were calculated as CNR=(SIlesion−SIskeletal muscle)/SDbackground.
24 h after injection of a CFA emulsion into the shoulder of mice, contrast agents (0.3 mol/kg) were injected via the tail vein and the animals imaged.
Series [3] is described as follows: Kinetic stability: transmetallation with Zn^2+ (relaxation rate R1 over 95 h). The format is physicochemical. As to conditions: 1 mM agent, ZnCl2 2.5 mM, PBS, 40° C., 0.47 T. Here is the method: Am. Chem. Soc., 2010, 132:168-177; and Laurent et al, Invest. Radiol., 2001, 36:115-122). mcMPO-Gd or MPO-Gd (1 mM) was incubated with ZnCl2 (2.5 mM) in PBS at 40° C., and the relaxation rates (R1) were measured for 95 h using an inversion-recovery pulse sequence on the Bruker Minispec (Bruker Analytics, North Billerica, MA) at 0.47 T (20 MHz) at 40° C. The stability of mcMPO-Gd was evaluated by kinetic index (R1(t)/R1(t=0)=0.8) and thermodynamic index (R1(72 h)/R1(t=0)) and compared with MPO-Gd (see e.g., Rodriguez et al, J. Am. Chem. […] Org. Chem., 2006, 71:3332-3334). […] T1 relaxation time was measured as previously described at different time points (see e.g., Rodriguez et al, J. Am. Chem. Soc., 2010, 132:168-177). […] Radiol., 2001, 36:115-122) indicating high stability of mcMPO-Gd, consistent with a previous report on the kinetic stability of the macrocyclic GBCAs (see e.g., Laurent et al, Contrast Media Mol. Imaging 2006, 1:128-137).

In series [4] the target is bovine serum albumin (BSA) (Bos taurus, UniProt P02769). Briefly: Binding to proteins (BSA) after activation by MPO, T1 relaxation. The format is biochemical. The following applies: for T1 (Before activation, ms): 0.5 mM agent, PBS; for T1 (Before activation, ms) / T1 (After activation, ms) / T1 change(%): MPO/GOX, 40° C.; for T1 (After activation, ms) / T1 change(%): 1 h. As for the experimental part: The capability of mcMPO-Gd and MPO-Gd to bind to bovine serum albumin (BSA) after activation by MPO was evaluated. […] The relaxation rates were measured as described above.

Series [5] addresses T1, MPO (Mus musculus, UniProt P11247).
T1 construct: from tissue; host or cells: carotid / brachiocephalic plaque of living male Apoe-/- mice
T1 sequence (P11247 139-718): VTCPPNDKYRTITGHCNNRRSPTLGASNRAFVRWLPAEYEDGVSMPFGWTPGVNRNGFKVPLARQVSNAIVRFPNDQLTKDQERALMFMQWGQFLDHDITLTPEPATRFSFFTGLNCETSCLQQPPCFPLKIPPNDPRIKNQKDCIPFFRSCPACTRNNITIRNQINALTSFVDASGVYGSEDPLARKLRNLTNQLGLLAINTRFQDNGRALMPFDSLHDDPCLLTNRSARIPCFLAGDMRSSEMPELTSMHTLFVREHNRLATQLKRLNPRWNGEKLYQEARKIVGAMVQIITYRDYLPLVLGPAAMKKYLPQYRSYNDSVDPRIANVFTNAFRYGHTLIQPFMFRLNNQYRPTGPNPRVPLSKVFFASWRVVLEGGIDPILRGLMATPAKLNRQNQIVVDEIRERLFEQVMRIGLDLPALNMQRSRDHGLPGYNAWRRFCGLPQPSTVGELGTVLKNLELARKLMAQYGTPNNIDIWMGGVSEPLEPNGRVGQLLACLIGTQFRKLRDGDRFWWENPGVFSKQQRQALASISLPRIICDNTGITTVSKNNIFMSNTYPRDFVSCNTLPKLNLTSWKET
Kind of series: MR imaging of tandem stenosis (TS) model of atherosclerotic plaque instability, intervention with AZM198. The following applies: TS Apoe^−/− mice, 7 weeks after TS surgery, 0.3 mmol/kg i.v. The format is in vivo. The text has this: Six weeks after commencement of WD, tandem stenosis (TS) was introduced into the mice as previously described (see e.g., Rashid et al, Eur. Heart J., 2018, 39:3301-3310). Male Apoe^-/- mice were anesthetized with 4% isoflurane. The right common carotid artery was dissected from circumferential connective tissues. Two stenoses were placed by tying a 6-0 blue-braided polyester fiber suture (TICRON 0.7 Metric) around the exposed artery, with the distal stenosis 1 mm from the carotid artery bifurcation and the proximal stenosis 3 mm from the distal stenosis. Blood flow was measured before and after the addition of each ligature using a perivascular flow module (Transonic, TS420) and a 0.7 mm perivascular flow probe (Transonic MA0.7PSB). Flow for each ligature in the TS was defined as 70% of baseline flow after addition of the distal ligature and 20% of baseline flow after addition of the proximal ligature. […] The contrast-to-noise ratio (CNR) was calculated as follows: CNR=([…] muscle)/SDbackground. The mean CNRs of three consecutive slices in plaque with unstable phenotype and corresponding segments of the left carotid artery (plaque-free), in addition to 1-2 consecutive slices in the brachiocephalic trunk (stable plaque), were calculated. Segmental enhancement attributable to MPO was assessed by calculating the ΔCNR=CNRpost-contrast-CNRpre-contrast. […]

The conditions of series [6]: 0.47 T, PBS, 40° C.; determined previously (Querol et al); cited from earlier work.

SMILES strings stand for the structures.

Chain of bovine serum albumin (BSA) (P02769 25-607): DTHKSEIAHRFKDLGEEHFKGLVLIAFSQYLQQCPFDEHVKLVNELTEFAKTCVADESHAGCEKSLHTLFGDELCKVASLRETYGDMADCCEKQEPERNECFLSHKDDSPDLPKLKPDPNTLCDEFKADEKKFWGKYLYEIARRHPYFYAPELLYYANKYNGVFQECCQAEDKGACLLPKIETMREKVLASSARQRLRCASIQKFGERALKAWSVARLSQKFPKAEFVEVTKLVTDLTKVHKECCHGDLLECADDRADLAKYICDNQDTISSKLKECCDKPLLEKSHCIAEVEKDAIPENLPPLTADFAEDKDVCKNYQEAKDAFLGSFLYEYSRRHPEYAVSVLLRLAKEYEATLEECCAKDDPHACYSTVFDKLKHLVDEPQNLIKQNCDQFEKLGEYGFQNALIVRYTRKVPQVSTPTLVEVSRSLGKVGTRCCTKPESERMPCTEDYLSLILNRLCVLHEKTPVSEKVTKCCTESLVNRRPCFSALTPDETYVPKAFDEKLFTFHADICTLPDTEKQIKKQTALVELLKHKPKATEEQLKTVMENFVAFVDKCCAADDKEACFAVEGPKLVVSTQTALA

`CNC(=O)CN(CCN(CCN(CC(=O)[O-])CC(=O)NC)CC(=O)[O-])CC(=O)[O-].[Gd+3]` [BMA—DTPA—Gd, BMA-Gd-DTPA]: the “R1(t=72 h)/R1(t=0) (long-term index)” value in series [1] (literature value (Laurent et al)) is recorded as 0.09. In addition, in series [1] (literature value), the “t (min) for R1(t)/R1(t=0) = 0.8” value is 50 to 60 min.
Turning to `CNC[C@H](O)[C@@H](O)[C@H](O)[C@H](O)CO.O=C([O-])CN1CCN(CC(=O)[O-])CCN(CC(=O)O)CCN(CC(=O)[O-])CC1.[Gd+3]` [Dotarem, gadoterate meglumine], the “contrast-to-noise ratio (CNR) over time” value in the series with MPO [2] (i.v., over 60 min) is “decreased rapidly over time”.
In the case of `O=C([O-])CN(CCN(CC(=O)[O-])CC(=O)NCCc1c[nH]c2ccc(O)cc12)CCN(CC(=O)[O-])CC(=O)NCCc1c[nH]c2ccc(O)cc12.[Gd+3]` [MPO-Gd, bis-5-HT-Gd-DTPA], the “increase in activation ratio (AR=CNR(post-contrast)/CNR(first post-contrast))” value with MPO [2] (60 min) is listed as 2 fold. Moreover, in series [3], the “R1(t=72 h)/R1(t=0) (long-term / thermodynamic index)” value amounted to 0.76 and the “t (min) for R1(t)/R1(t=0) = 0.8 (kinetic / ratio index)” value is reported as 2866 min. For the same compound, the “improvement in T1 shortening in the presence of BSA” value in series [4] (BSA vs no BSA, after MPO activation) stood at 22%. For the same compound, in series [4] (BSA), the “T1 (Before activation, ms)” value stood at 381 ms; the “T1 (After activation, ms)” value was determined as 246 ms; the “T1 change(%)” value is given as 54%. Moreover, in series [4] (No BSA), the “T1 (Before activation, ms)” value is listed as 375 ms; the “T1 (After activation, ms)” value came to 283 ms; the “T1 change(%)” value was 32%. The “ΔCNR in unstable plaque” value on MPO [5] is reported as 15.0. For the same compound, the “relaxivity (r1)” value in series [6] is 4.3 mM⁻¹ s⁻¹.
